US20240041042A1, “1-(PYRIDYL)-5-AZINYLPYRAZOLE DERIVATIVES, AND THEIR USE FOR CONTROL OF UNDESIRED PLANT GROWTH” (Bayer Aktiengesellschaft, priority 2020, published 2024)
Read-outs that look alike come from different tables or passages of the source.

Assays:
Format in all cases: in vivo
[1] = test system: Alopecurus myosuroides (ALOMY); experiment: Pre-emergence herbicidal action against ALOMY; settings: scored visually after about 3 weeks, 100% = plants have died
Outline: (§1)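 Greenhouse pot trial: seeds sown, soil-covered, sprayed before emergence with compound in water (0.5% additive; 600 l/ha; ≤320 g/ha). Scoring visual, ~3 weeks, 0–100% scale vs untreated.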

[2] = test system: Amaranthus retroflexus (AMARE); experiment: Pre-emergence herbicidal action against AMARE; settings: visual scoring after about 3 weeks vs untreated controls
Outline: as §1

Avena fatua (AVEFA) [3] = experiment: Pre-emergence herbicidal action against AVEFA; settings: 320 g/ha, visual scoring after about 3 weeks vs untreated controls
Outline: as §1

[4] = test system: Digitaria sanguinalis (DIGSA); experiment: Pre-emergence herbicidal action against DIGSA
Outline: as §1

[5] = test system: Echinochloa crus-galli (ECHCG); experiment: Pre-emergence herbicidal action against ECHCG; settings: dosage 320 g/ha
Outline: as §1

Lolium rigidum (LOLRI) [6] = experiment: Pre-emergence herbicidal action against LOLRI; settings: dosage 320 g/ha
Outline: as §1

[7] = test system: Matricaria inodora (MATIN); experiment: Pre-emergence herbicidal action against MATIN; settings: dosage 320 g/ha
Outline: as §1

[8] = test system: Polygonum convolvulus (POLCO); experiment: Pre-emergence herbicidal action against POLCO; settings: dosage 320 g/ha
Outline: as §1

Setaria viridis (SETVI) [9] = experiment: Pre-emergence herbicidal action against SETVI
Outline: as §1

[10] = test system: Verconica persica (VERPE); experiment: Pre-emergence herbicidal action against VERPE
Outline: as §1

Viola tricolor (VIOTR) [11] = experiment: Pre-emergence herbicidal action against VIOTR
Outline: as §1

Oryza sativa (ORYSA) [12] = settings: pre-emergence, 80 g/ha, crop plant compatibility, in comparison to untreated controls
Outline: (§2)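 Scoring: visual, % of untreated control, about 3 weeks after a pre-emergence application to the soil surface. Application used WP or EC formulations diluted in water with 0.5% additive at 600 l/ha; dosage levels are marked by suffixes a, b and c.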

[13] = test system: Alopecurus myosuroides (ALOMY); experiment: Post-emergence herbicidal action against ALOMY; settings: visual rating about 3 weeks after treatment vs untreated controls (100% = plants have died, 0% = like control plants)
Outline: (§3)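 Greenhouse plants sprayed at the one-leaf stage, 2–3 weeks after sowing, with WP or EC formulations plus 0.5% additive at 600 l/ha water. Activity rated visually after about 3 weeks versus untreated controls (100% = dead, 0% = like control), at 320 g/ha or lower.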

[14] = test system: Digitaria sanguinalis (DIGSA); experiment: Post-emergence herbicidal action against DIGSA; settings: visual rating about 3 weeks after treatment
Outline: as §3

[15] = test system: Echinochloa crus-galli (ECHCG); experiment: Post-emergence herbicidal action against ECHCG
Outline: as §3

[16] = test system: Polygonum convolvulus (POLCO); experiment: Post-emergence herbicidal action against POLCO; settings: dosage 80 g/ha
Outline: as §3

[17] = test system: Verconica persica (VERPE); experiment: Post-emergence herbicidal action against VERPE
Outline: as §3

Viola tricolor (VIOTR) [18] = experiment: Post-emergence herbicidal action against VIOTR
Outline: as §3

Oryza sativa (ORYSA) [19] = settings: crop plant compatibility
Outline: (§4)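 Visual rating (% effect vs. untreated plants; 100% = plant death) made about 3 weeks after treatment. Plants had been sprayed at one-leaf stage, 2–3 weeks post-sowing, with aqueous WP/EC preparations containing 0.5% additive, 600 l/ha water volume; a, b, c mark dose levels.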

Zea mays (ZEAMX) [20] = settings: pre-emergence, 80 g/ha, crop plant compatibility, in comparison to untreated controls
Outline: as §2

[21] = test system: Abutilon theophrasti (ABUTH); experiment: Post-emergence herbicidal action against ABUTH; settings: 320 g/ha, visual rating about 3 weeks after treatment vs untreated controls (100% = plants have died, 0% = like control plants)
Outline: as §3

Avena fatua (AVEFA) [22] = experiment: Post-emergence herbicidal action against AVEFA; settings: 320 g/ha, visual rating about 3 weeks after treatment
Outline: as §3

[23] = test system: Pharbitis purpurea (PHBPU); experiment: Post-emergence herbicidal action against PHBPU
Outline: as §3

Setaria viridis (SETVI) [24] = experiment: Post-emergence herbicidal action against SETVI
Outline: as §3

[25] = test system: Triticum aestivum (TRZAS); settings: crop plant compatibility, 80 g/ha, effect vs untreated controls
Outline: as §4

Zea mays (ZEAMX) [26] = settings: crop plant compatibility, 80 g/ha, effect vs untreated controls
Outline: as §4

[27] = test system: Pharbitis purpurea (PHBPU); experiment: Pre-emergence herbicidal action against PHBPU
Outline: as §1

Lolium rigidum (LOLRI) [28] = experiment: Post-emergence herbicidal action against LOLRI; settings: dosage 320 g/ha
Outline: as §3

[29] = 80 g/ha, visual scoring after about 3 weeks vs untreated controls
[30] = 80 g/ha, effect in comparison to untreated controls

SMILES | Pre-emergence action against ALOMY ([1]; 320 g/ha) [%] | Pre-emergence action against AMARE in % ([2]; 80 g/ha) [%] | Pre-emergence action against AMARE in % ([2]; 320 g/ha) [%] | Pre-emergence action against AVEFA in % (Avena fatua (AVEFA) [3]) [%] | Pre-emergence action against DIGSA in % [4, 29] [%] | Pre-emergence action against DIGSA in % ([4]; dosage 320 g/ha) [%] | Pre-emergence action against ECHCG in % [5] [%] | Pre-emergence action against LOLRI in % (Lolium rigidum (LOLRI) [6]) [%] | Pre-emergence action against MATIN in % [7] [%] | Pre-emergence action against POLCO in % [8] [%] | Pre-emergence action against SETVI in % (Setaria viridis (SETVI) [9]; dosage 320 g/ha) [%] | Pre-emergence action against VERPE in % ([10]; dosage 320 g/ha) [%] | Pre-emergence action against VIOTR in % (Viola tricolor (VIOTR) [11]; 320 g/ha, Viola tricolor) [%] | Pre-emergence action against ORYSA in % (Oryza sativa (ORYSA) [12]) [%] | Post-emergence action against ALOMY in % ([13]; 80 g/ha) [%] | Post-emergence action against DIGSA in % ([14]; 80 g/ha) [%] | Post-emergence action against ECHCG in % ([15]; dosage 80 g/ha) [%] | Post-emergence action against VERPE in % ([17]; dosage 80 g/ha) [%] | Post-emergence action against VIOTR in % (Viola tricolor (VIOTR) [18]; 80 g/ha) [%] | Post-emergence action against ORYSA in % (Oryza sativa (ORYSA) [19]; [30]) [%] | further results
CCOC(=O)COc1nn(-c2ccccn2)c(-c2ccc(F)nc2)c1I [Example I-121] | 100 | 100 | 100 | 90 | 100 | 100 | 100 | 100 | 80 | 100 | 100 | 100 | 100 | 0 | 80 | 80 | 80 | 80 | 80 | 0 | Post-emergence action against POLCO in % [16]: 80%; Post-emergence action against ORYSA in % (Oryza sativa (ORYSA) [19]; 20 g/ha, effect vs untreated controls): 0%
CCOC(=O)COc1nn(-c2ncccc2C(F)(F)F)c(-c2cncc(F)c2)c1I [Example I-225] | 90 |  | 100 | 90 |  |  | 80 |  | 80 | 90 | 80 | 90 | 100 | 20 |  |  | 80 | 80 | 80 | 10 | Pre-emergence action against ALOMY ([1]; 80 g/ha): 80%; Pre-emergence action against VERPE in % ([10]; dosage 80 g/ha): 80%; Pre-emergence action against VIOTR in % (Viola tricolor (VIOTR) [11]; dosage 80 g/ha): 90%; Pre-emergence action against ZEAMX in % (Zea mays (ZEAMX) [20]): 10%; Post-emergence action against ABUTH in % [21]: 80%; Post-emergence action against ALOMY in % ([13]; 320 g/ha): 90%; Post-emergence action against AVEFA in % (Avena fatua (AVEFA) [22]): 80%; Post-emergence action against ECHCG in % ([15]; dosage 320 g/ha): 90%; Post-emergence action against PHBPU in % ([23]; dosage 80 g/ha): 80%; Post-emergence action against PHBPU in % ([23]; dosage 320 g/ha): 80%; Post-emergence action against SETVI in % (Setaria viridis (SETVI) [24]; dosage 320 g/ha): 80%; Post-emergence action against VERPE in % ([17]; 320 g/ha, VERPE): 90%; Post-emergence action against VIOTR in % (Viola tricolor (VIOTR) [18]; 320 g/ha): 80%; Post-emergence action against TRZAS in % [25]: 20%; Post-emergence action against ZEAMX in % (Zea mays (ZEAMX) [26]): 20%
C#CCOC(=O)COc1nn(-c2ccccn2)c(-c2ccc(F)nc2)c1Br [Example I-360] | 100 | 90 | 100 | 90 | 90 | 100 | 100 | 100 | 90 | 100 | 100 | 90 | 100 | 10 | 90 | 80 | 80 | 80 |  | 20 | Pre-emergence action against ALOMY ([1]; 80 g/ha): 100%; Pre-emergence action against PHBPU in % ([27]; dosage 80 g/ha): 80%; Pre-emergence action against PHBPU in % ([27]; dosage 320 g/ha): 90%; Pre-emergence action against SETVI in % (Setaria viridis (SETVI) [9]; dosage 80 g/ha): 90%; Post-emergence action against ABUTH in % [21]: 80%; Post-emergence action against ALOMY in % ([13]; 320 g/ha): 90%; Post-emergence action against AVEFA in % (Avena fatua (AVEFA) [22]): 80%; Post-emergence action against DIGSA in % ([14]; 320 g/ha): 80%; Post-emergence action against ECHCG in % ([15]; dosage 320 g/ha): 80%; Post-emergence action against LOLRI in % (Lolium rigidum (LOLRI) [28]): 90%; Post-emergence action against PHBPU in % ([23]; dosage 80 g/ha): 80%; Post-emergence action against PHBPU in % ([23]; dosage 320 g/ha): 80%; Post-emergence action against SETVI in % (Setaria viridis (SETVI) [24]; dosage 80 g/ha): 80%; Post-emergence action against SETVI in % (Setaria viridis (SETVI) [24]; dosage 320 g/ha): 80%; Post-emergence action against VERPE in % ([17]; 320 g/ha, VERPE): 80%
